Several values for one entry are separate records, joined by “and”; a condition that tells them apart may be missing. Equal entries are not always repeated. Entries after “also recorded” stand apart in the source; their conditions may differ.
Key:
Assay type in all cases: cell-based, human
DLD‐1 CRC cell line = assay: intracellular ROS, CellROX Deep Red flow cytometry, DLD-1; details: treated 1 h (menadione 100 μmol/L, 30 min)
Method: In order to estimate the effect of each inhibitor described above, intracellular reactive oxygen species (ROS) were measured using CellROX™ Deep Red reagent (Molecular Probes). Briefly, cells were seeded on 6‐well plates at 1 × 10^6 cells per well. After cells reached 90% confluence, cells were treated with designated reagents for 1 h. CellROX™ Deep Red reagent was added at a final concentration of 5 μmol/L to the culture medium and then incubated for 30 min at 37°C. Subsequently, the medium was removed and the cells were washed with PBS and detached using 0.25% trypsin‐EDTA. The resulting fluorescence was measured using a FACS Calibur flow cytometer (Becton Dickinson, Franklin Lakes, NJ). Menadione (100 μmol/L) was added 30 min before CellROX™ Deep Red reagent treatment as a reference ROS inducer. […] CD44v9 positivity of CTOS cells was analyzed as follows: Cancer spheroids were dispersed with serial treatments of TrypLE™ (20 min, GIBCO) and Accumax™ (10 min, Innovative Cell Technologies, San Diego, CA). Cell surface CD44v9 was stained with CD44v9 antibody (Cosmobio) as well as PE‐conjugated anti‐rat IgG2a (Becton Dickinson). The fluorescence was measured using a FACS Calibur flow cytometer (Becton Dickinson). […]
One hour after each drug treatment, cells were stained with CellROX DeepRed and intracellular ROS were quantified with FACS. […]

[1] = test system: CTOS88 colorectal cancer tissue‐originated spheroids; assay: cell survival (trypan blue exclusion, 5 days), CTOS88; details: for Ratio of survived cells (Drugs treated/Untreated), #3: passage point #3; for Ratio of survived cells (Drugs treated/Untreated), #4: passage point #4; for Ratio of survived cells (Drugs treated/Untreated), #5: passage point #5; for Ratio of survived cells (Drugs treated/Untreated), #1: passage point #1; for Ratio of survived cells (Drugs treated/Untreated), #6: passage point #6
Description: (§1) All experimental procedures were approved by the animal facility at Dokkyo Medical University (ID: 951) and were described elsewhere 10. The existence of CSCs has been experimentally proven through serial xenotransplantation and tumorigenesis 2, 14. […] These subcutaneous tumors were again subjected to enzymatic dissociation and some of the tumor cells were subcutaneously transplanted into other mice. […] Seven cases (CTOS:40, 42, 68, 71, 76, 86, 88) were used for in vitro experiments.
(§2) Modified procedures of CTOS culture 16 were described elsewhere 10. […] The culture medium was serum‐free advanced DMEM/F‐12 (GIBCO, Waltham, MA) supplemented with FGF‐2 (10 ng/mL, ReproCell, Yokohama, Japan), penicillin ([…], Wako, Osaka, Japan), streptomycin (0.1 mg/mL,Wako), gentamicin (50 μg/mL, Wako), and fungizone (0.25 μg/mL, GIBCO). DLD‐1 and HCT116 CRC cell lines were purchased from JCRB Cell Bank (Osaka, Japan) and RIKEN BioResource Center (Ibaraki, Japan), respectively. In order to estimate pharmacological side effects against normal tissues, human diploid fibroblasts were purchased (JCRB Cell Bank) as model cells. The origins of the fibroblasts were as follows: OUMS‐36 (embryo), TIG‐3 (fetal lung), TIG‐111 (dermal fibroblasts [DFs] from individual), TIG‐119 (DFs from individual), and TIG‐102 (DFs from individual). Adult DFs were purchased from Kurabo (Osaka, Japan). CRC cell lines and fibroblasts were maintained under supplier‐recommended culture conditions. Since the culture conditions are different between fibroblasts and CTOSs, we need to be cautious about the interpretation of data (i.e., lateral comparison between them). […] Colorectal CTOSs display augmented survival through maintaining epithelial structure with E‐cadherin 16. On the other hand, the establishment of conventional cell lines (adherent culture) are much less efficient because constant cell division and autonomous survival are required for the procedure. When we choose CTOSs instead of cancer cell lines, we lose the equivalent condition (adherent culture) as a trade‐off.
(§3) Each drug's half‐maximal inhibitory concentration (IC50) was calculated based on live cell number ratios (drug treated/untreated × 100%) obtained from serial dilution of drug concentration. The length of drug exposure was 5 days. Each number of live cells was counted automatically by trypan blue exclusion (LUNA automated cell counter, Logos Biosystems, Anyang, South Korea). Cancer spheroids were dispersed with serial treatments (20 min each) of TrypLE™ and Accumax™. Thus, IC50 was determined based on cellular survival, but not on proliferation.

[2] = test system: phosphorylated NRF2 in colorectal CTOSs; assay: NRF2 phosphorylation by western blotting, colorectal CTOSs; details: 24 hours, Auranofin 2µM, Piperlongumine 5µM, CB83 12.5 µM
Method: From colorectal CTOS, whole‐cell proteins were dissolved with solubilizer (7 mol/L urea, 2 mol/L thiourea, 2% Triton X‐100, Wako) and the entangled genomic DNA was sheared by sonication for 30 min. Procedures for immunoblotting have been described elsewhere 6, 10. Primary antibodies used in this study are as follows: phosphorylated NRF2 from Abcam (#76026) and Histone H3 from Cell Signaling Technologies (#4499, Danvers, MA). Phosphorylation of NRF2 is well correlated with nuclear accumulation in HCCs 6. Representative data are shown in the figures; all experiments were reproduced at least twice with different passage points.
Colorectal CTOSs were incubated with each inhibitor for 24 hours. Whole cell proteins were extracted and each well was loaded with same amount of proteins (40 µg for NRF2 and 10 µg for H3). Phosphorylation of NRF2 was measured by western blotting. Blotting for histone H3 serves as loading control.

[3] = test system: CTOS86 colorectal cancer tissue‐originated spheroids; assay: cell survival (trypan blue exclusion, 5 days), CTOS86; details: for IC50: CTOS86, cellular survival, 5 days; for Ratio of survived cells (Drugs treated/Untreated), Average / Ratio of survived cells (Drugs treated/Untreated), single passage points #: CTOS#86
Description: as §1, §2, §3

[4] = test system: TIG‐3 embryonic fibroblasts; assay: intracellular ROS, CellROX Deep Red flow cytometry, TIG-3; details: treated 1 h (menadione 100 μmol/L, 30 min)
Method: (§4) In order to estimate the effect of each inhibitor described above, intracellular reactive oxygen species (ROS) were measured using CellROX™ Deep Red reagent (Molecular Probes). Briefly, cells were seeded on 6‐well plates at 1 × 10^6 cells per well. After cells reached 90% confluence, cells were treated with designated reagents for 1 h. CellROX™ Deep Red reagent was added at a final concentration of 5 μmol/L to the culture medium and then incubated for 30 min at 37°C. Subsequently, the medium was removed and the cells were washed with PBS and detached using 0.25% trypsin‐EDTA. The resulting fluorescence was measured using a FACS Calibur flow cytometer (Becton Dickinson, Franklin Lakes, NJ). Menadione (100 μmol/L) was added 30 min before CellROX™ Deep Red reagent treatment as a reference ROS inducer. […] CD44v9 positivity of CTOS cells was analyzed as follows: Cancer spheroids were dispersed with serial treatments of TrypLE™ (20 min, GIBCO) and Accumax™ (10 min, Innovative Cell Technologies, San Diego, CA). Cell surface CD44v9 was stained with CD44v9 antibody (Cosmobio) as well as PE‐conjugated anti‐rat IgG2a (Becton Dickinson). The fluorescence was measured using a FACS Calibur flow cytometer (Becton Dickinson). Since CTOSs contained abundant auto‐fluorescent cells, we defined FL2^+FL1^− cells as authentic PE‐positive (Fig. S4). Thus, CD44v9‐positive rate was defined as FL2^+FL1^−/total live cells and CD44v9‐positive fraction was further gated and split between CD44v9^low and CD44v9^high (Fig. S4), to calculate the mean fluorescent intensity of CD44v9^high fraction.
(§5) One hour after each drug treatment, cells were stained with CellROX DeepRed and intracellular ROS were quantified with FACS. Upper: histogram of fluorescent signal is represented. Lower. representative mean fluorescent intensity scores are shown. Note that without drug treatment (Control), intracellular ROS is higher in OUMS36 and TIG3 (embryonic fibroblasts) but lower in DLD-1 and HCT116 (CRC cell lines). ROS in DLD-1 was increased by auranofin. ROS in HCT116 was increased by all the inhibitors tested. […]

[5] = test system: OUMS‐36 embryonic fibroblasts; assay: intracellular ROS, CellROX Deep Red flow cytometry, OUMS-36; details: treated 1 h (menadione 100 μmol/L, 30 min)
Method: as §4, §5

[6] = calculated from average % survival

In the case of `CC[PH](CC)(CC)[Au][S][C@@H]1O[C@H](COC(C)=O)[C@@H](OC(C)=O)[C@H](OC(C)=O)[C@H]1OC(C)=O` [Aura, Auranofin], the “intracellular ROS response” value (DLD‐1 CRC cell line) is reported as “increased; also recorded: increase of ROS”, the “Ratio of survived cells (Drugs treated/Untreated), Average” value ([1]; Aura 1 microM) is reported as 78.3333% and the “Ratio of survived cells (Drugs treated/Untreated), #3” value (“Ratio … (Drugs treated/Untreated), #3” for short) ([1]; Aura 1 microM) is reported as 91%. The “Ratio of survived cells (Drugs treated/Untreated), #4” value (shortened to “Ratio … (Drugs treated/Untreated), #4”) ([1]; Aura 1 microM) was 76%, the “Ratio of survived cells (Drugs treated/Untreated), #5” value (“Ratio … (Drugs treated/Untreated), #5” for short) ([1]; Aura 1 microM) was 68% and the “Ratio of survived cells (Drugs treated/Untreated), Average” value ([1]; Aura 2 microM) was 67%. For the same molecule, the “Ratio … (Drugs treated/Untreated), #3” value ([1]; Aura 2 microM) was 72%, the “Ratio … (Drugs treated/Untreated), #4” value ([1]; Aura 2 microM) was 61% and the “Ratio … (Drugs treated/Untreated), #5” value ([1]; Aura 2 microM) was 68%. For the same molecule, the “Ratio of survived cells (Drugs treated/Untreated), Average” value ([1]; Aura 4 microM) was 24.3333%, the “Ratio of survived cells (Drugs treated/Untreated), #1” value (shortened to “Ratio … (Drugs treated/Untreated), #1”) ([1]; Aura 4 microM) was 33% and the “Ratio … (Drugs treated/Untreated), #3” value ([1]; Aura 4 microM) was 23%. The “Ratio … (Drugs treated/Untreated), #5” value ([1]; Aura 4 microM) was 17%, the IC50 [1, 6] was 2.34 µM and the IC50 ([1]; cellular survival, 5 days) was 2.34 µM. The NRF2 phosphorylation [2] was “efficiently phosphorylated”, the IC50 [3] was 3.02 µM and the “Ratio of survived cells (Drugs treated/Untreated), Average” value ([3]; Aura 1 microM) was 83.5%. For the same molecule, the “Ratio of survived cells (Drugs treated/Untreated), single passage points #” value ([3]; Aura 1 microM) was 75% and 92%, the “Ratio of survived cells (Drugs treated/Untreated), Average” value ([3]; Aura 2 microM) was 64.5% and the “Ratio of survived cells (Drugs treated/Untreated), single passage points #” value ([3]; Aura 2 microM) was 67% and 62%.

In the case of `COc1cc(/C=C/C(=O)N2CCC=CC2=O)cc(OC)c1OC` [Pipe, Piperlongumine], the “Ratio of survived cells (Drugs treated/Untreated), Average” value ([1]; Pipe 2.5 microM) is reported as 75.3333%, the “Ratio … (Drugs treated/Untreated), #3” value ([1]; Pipe 2.5 microM) is reported as 56% and the “Ratio … (Drugs treated/Untreated), #4” value ([1]; Pipe 2.5 microM) is reported as 86%. The “Ratio … (Drugs treated/Untreated), #5” value ([1]; Pipe 2.5 microM) was 84%, the “Ratio of survived cells (Drugs treated/Untreated), Average” value ([1]; Pipe 5 microM) was 44.8% and the “Ratio … (Drugs treated/Untreated), #1” value ([1]; Pipe 5 microM) was 44%. For the same molecule, the “Ratio … (Drugs treated/Untreated), #3” value ([1]; Pipe 5 microM) was 33%, the “Ratio … (Drugs treated/Untreated), #4” value ([1]; Pipe 5 microM) was 57% and the “Ratio … (Drugs treated/Untreated), #5” value ([1]; Pipe 5 microM) was 29%. For the same molecule, the “Ratio of survived cells (Drugs treated/Untreated), #6” value ([1]; Pipe 5 microM) was 61%, the “Ratio of survived cells (Drugs treated/Untreated), Average” value ([1]; Pipe 10 microM) was 12.2% and the “Ratio … (Drugs treated/Untreated), #1” value ([1]; Pipe 10 microM) was 19%. The “Ratio … (Drugs treated/Untreated), #3” value ([1]; Pipe 10 microM) was 4%, the “Ratio … (Drugs treated/Untreated), #4” value ([1]; Pipe 10 microM) was 16% and the “Ratio … (Drugs treated/Untreated), #5” value ([1]; Pipe 10 microM) was 5%. The “Ratio of survived cells (Drugs treated/Untreated), #6” value ([1]; Pipe 10 microM) was 17%, the IC50 [1, 6] was 4.25 µM and the IC50 ([1]; cellular survival, 5 days) was 4.25 µM. For the same molecule, the NRF2 phosphorylation [2] was “efficiently phosphorylated”, the “intracellular ROS response” value [4] was “no ROS increase” and the “intracellular ROS response” value [5] was “no ROS increase”. The IC50 [3] was 7.12 µM, the “Ratio of survived cells (Drugs treated/Untreated), Average” value ([3]; Pipe 2.5 microM) was 79% and the “Ratio of survived cells (Drugs treated/Untreated), single passage points #” value ([3]; Pipe 2.5 microM) was 79%. For the same molecule, the “Ratio of survived cells (Drugs treated/Untreated), Average” value ([3]; Pipe 5 microM) was 60%, the “Ratio of survived cells (Drugs treated/Untreated), single passage points #” value ([3]; Pipe 5 microM) was 69% and 51% and the “Ratio of survived cells (Drugs treated/Untreated), Average” value ([3]; Pipe 10 microM) was 39.5%. The “Ratio of survived cells (Drugs treated/Untreated), single passage points #” value ([3]; Pipe 10 microM) was 39% and 40%.
